Data published in patent US11851676B2, “Human neural precursor cells with inducible STIM1 knockdown” (NATIONAL CENTRE FOR BIOLOGICAL SCIENCES, priority 2018, dated 2023).

How the values were obtained:
SOCE in human NPCs = experiment: Thapsigargin-induced store release and SOCE Ca2+ imaging in human NPCs; format: cell-based; conditions: thapsigargin 10 μM store depletion, re-addition of 2 mM Ca2+; pharmacological inhibitors vs DMSO
Protocol: (A, B) Ca^2+-responses during ER-store release and SOCE induced by Thapsigargin (TG, 10 μM) measured using the ratiometric Ca^2+-indicator indo-1-AM in wild-type (WT) hNPCs (A) or hNPCs treated with pharmacological inhibitors of SOCE, BTP-2 and 2-APB at the indicated concentrations or DMSO as a solvent control (B). Each trace represents the mean+SEM for 25-100 cells. Ionomycin (Iono, 10 μM) was added at the end of each imaging to determine the peak F405/485 ratio obtained after saturation of the Ca′-indicator with Ca^2+ (C) Box plots quantifying the peak F405/485 values for store-release and SOCE in the indicated treatment conditions.
(Top) A representative Western blot showing levels of STIM1 protein in hNPCs transduced with an NTC (non-targeting control) or an sh-RNA targeting STIM1 (STIM1 KD). Actin serves as the loading control. […] (E) Ca^2+-responses during store-release and SOCE in hNPCs transduced with NTC and STIM1 KD. (F) Box plots quantifying the peak F405/485 values for store-release and SOCE in the indicated genotypes.

SOCE in NPCs = conditions: embryonic and adult mouse NSCs/NPCs; cited from earlier work
SVZ cells [1] = conditions: pharmacological blockade of SOC, in vitro; cited from earlier work
SVZ cells [2] = conditions: injection in brain lateral ventricle; cited from earlier work

NCCOB(c1ccccc1)c1ccccc1 [2-APB, 2-aminoethoxy-diphenyl borate]
effect on SOCE in human NPCs (SOCE in human NPCs): significantly inhibited SOCE
effect on SOCE in mouse NPCs (SOCE in NPCs): blocked

Cc1nnsc1C(=O)Nc1ccc(-n2nc(C(F)(F)F)cc2C(F)(F)F)cc1 [BTP-2]
effect on proliferation of SVZ cells (SVZ cells [1]): decreases proliferation
effect on SOCE in human NPCs (SOCE in human NPCs): significantly inhibited SOCE
effect on SOCE in mouse NPCs (SOCE in NPCs): blocked

[La+3] [La^3+]
effect on SOCE in mouse NPCs (SOCE in NPCs): blocked

COc1ccc(CCCOC(Cn2ccnc2)c2ccc(OC)cc2)cc1 (centres unmarked) [SKF-96365]
effect on proliferation of SVZ cells (SVZ cells [1]): decreases proliferation
effect on SVZ cell proliferation in vivo (SVZ cells [2]): diminishes SVZ cell proliferation
